We go through 16 molecules from PubChem BioAssay (NCI).

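Cells were grown in 96-well plates and exposed to each compound for 48 hours at five concentrations; endpoints were interpolated linearly between bracketing concentrations, or set to the highest concentration if not reached. TGI marks complete inhibition of growth.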

Some test systems named below: SF-539 CNS; KM12 colon; UACC-257 melanoma; MCF7 breast; NCI-H23 lung; SK-OV-3 ovarian; SR leukemia; HOP-92 NSCLC; SK-MEL-28 melanoma; A498 renal.
Experiment in all cases: growth of human tumour cells (NCI), 48 h

On to `CC(C)[Si](OC1=CCC[C@H]2NC(=O)[C@@H](Cc3ccc([N+](=O)[O-])cc3)[C@@]12C)(C(C)C)C(C)C`, for which the TGI turned out to be 5.41 µM in the assay with SF-539 CNS; 13.1 µM in the assay with KM12 colon; 17.8 µM in the assay with UACC-257 melanoma; 10.7 µM in the assay with MCF7 breast; 18.6 µM with NCI-H23 lung; 21.7 µM in the assay on SK-OV-3 ovarian. This molecule also displayed a TGI in the assay on SR leukemia of 8.02 µM.
On to `CCOC(=O)C(C(=O)OCC)C(NC(=O)Nc1cc(C(F)(F)F)ccc1OC)(C(F)(F)F)C(F)(F)F`, for which the TGI in the assay on SF-539 CNS is 36.2 µM; with HOP-92 NSCLC it was 55.8 µM; with KM12 colon, 66.1 µM; with UACC-257 melanoma, 94.1 µM; in the assay on MCF7 breast it was more than 100 µM; in the assay on NCI-H23 lung, 85.6 µM. The results for the TGI in the assay on SK-OV-3 ovarian, with SK-MEL-28 melanoma and with A498 renal were more than 100 µM, more than 100 µM and 31.9 µM, respectively.
With `O=c1[nH]c(=S)c2[nH]c(=O)n(-c3ccccc3)c2[nH]1`, the TGI in the assay on HOP-92 NSCLC, in the assay with KM12 colon, in the assay with UACC-257 melanoma, in the assay on NCI-H23 lung, in the assay with SR leukemia and in the assay with SK-MEL-28 melanoma was more than 100 µM each time. In the assay on A498 renal, this molecule returned a TGI of more than 100 µM.
With `O=c1ccc2nc3ccc(O)cc3oc-2c1`, the TGI is more than 59.8 µM with SF-539 CNS; more than 100 µM in the assay with HOP-92 NSCLC; more than 62.7 µM with KM12 colon; 26.4 µM with UACC-257 melanoma; more than 52.7 µM with MCF7 breast; 14.3 µM with NCI-H23 lung. Besides, the TGI in the assay on SK-OV-3 ovarian and in the assay with A498 renal was more than 100 µM in each case.
Consider `CCC12C=CCN3CCC4(C(=C(C(=O)OC)C1)Nc1ccccc14)[C@H]32` (stereo partly drawn), for which the TGI was 47.5 µM in the assay on SF-539 CNS; 87.7 µM in the assay with HOP-92 NSCLC; more than 100 µM in the assay on KM12 colon; more than 100 µM in the assay with UACC-257 melanoma; 93.6 µM with NCI-H23 lung; 49.7 µM in the assay on SK-OV-3 ovarian. In addition, the TGI in the assay with SR leukemia was 34.8 µM; in the assay with SK-MEL-28 melanoma, more than 100 µM; in the assay on A498 renal, 79.4 µM.
`NC1=CN(Cc2ccccc2)C2=N/C(=C\c3ccco3)C(=O)N12`: the TGI in the assay on SF-539 CNS, with HOP-92 NSCLC, with KM12 colon, with UACC-257 melanoma, with MCF7 breast and in the assay on NCI-H23 lung was more than 100 µM throughout. Further, the TGI in the assay on SK-OV-3 ovarian, with SK-MEL-28 melanoma and in the assay with A498 renal was more than 100 µM each time.
In the case of `COC(=O)c1ccccc1Nc1ccccc1C(=O)OC`, the TGI was more than 100 µM with SF-539 CNS; 75.5 µM in the assay with HOP-92 NSCLC; more than 100 µM in the assay with KM12 colon; more than 100 µM in the assay on UACC-257 melanoma; more than 100 µM in the assay with MCF7 breast; more than 100 µM in the assay on NCI-H23 lung. The TGI in the assay on SK-OV-3 ovarian, with SK-MEL-28 melanoma and with A498 renal was more than 100 µM in each case.
For `CCN1CCC(O)(/C=C/c2ccc(Cl)cc2)C(C(=O)/C=C/c2ccc(Cl)cc2)C1` (stereo not drawn), the TGI in the assay on KM12 colon is 29.5 µM; in the assay with UACC-257 melanoma it was 35.5 µM; in the assay on NCI-H23 lung it was 45.6 µM; in the assay on SK-OV-3 ovarian it was 61.7 µM; with SR leukemia, more than 100 µM; in the assay with SK-MEL-28 melanoma, 57 µM. The molecule also came in with a TGI with A498 renal of 34.2 µM.
`C#CC1(O)CC(c2ccccc2)N(C)C(c2ccccc2)C1` (stereo not drawn): the TGI in the assay with SF-539 CNS, in the assay with HOP-92 NSCLC, with KM12 colon, with UACC-257 melanoma, in the assay with NCI-H23 lung and in the assay with SK-OV-3 ovarian was more than 100 µM in each case. Also, the TGI with SK-MEL-28 melanoma and with A498 renal was more than 100 µM throughout.
Turning to `COc1cc2c(cc1OC)C(=O)N1CCCC1C(=O)S2` (stereo not drawn), the TGI in the assay with SF-539 CNS, with HOP-92 NSCLC, with KM12 colon, in the assay with UACC-257 melanoma, with NCI-H23 lung and with SK-OV-3 ovarian was more than 100 µM each time. For the same molecule, the TGI with SR leukemia and in the assay with SK-MEL-28 melanoma was more than 100 µM in each case.
Turning to `NCCSc1nc(N)c2ncn(C3OC(CO)C(O)C3O)c2n1` (stereo not drawn), the TGI with SF-539 CNS, in the assay on HOP-92 NSCLC, in the assay with KM12 colon, in the assay with UACC-257 melanoma, in the assay with NCI-H23 lung and with SK-OV-3 ovarian was more than 100 µM each time. In addition, the TGI in the assay on SR leukemia, in the assay with SK-MEL-28 melanoma and in the assay on A498 renal was more than 100 µM in each case.
As for `CC1CC/C(=C\c2ccc(F)cc2)C2=C1C(c1ccc(F)cc1)n1c(s/c(=C\c3ccc(Cl)cc3)c1=O)=N2` (stereo not drawn), the TGI in the assay on HOP-92 NSCLC, with KM12 colon, in the assay with UACC-257 melanoma, in the assay with MCF7 breast, in the assay on SK-OV-3 ovarian and in the assay with SK-MEL-28 melanoma was more than 100 µM each time. For the same molecule, the TGI in the assay with A498 renal was more than 100 µM.
With `Nc1ccc2c(c1)S(=O)(=O)c1cc(N)ccc1-2`, the TGI in the assay with SF-539 CNS, with HOP-92 NSCLC, in the assay on KM12 colon, in the assay on UACC-257 melanoma, with MCF7 breast and in the assay on NCI-H23 lung was more than 100 µM each time. Moreover, the TGI in the assay on SK-OV-3 ovarian and with A498 renal was more than 100 µM throughout.
Turning to `Cc1cccc(/C=C2\CCCCCC2=O)c1`, the TGI in the assay on HOP-92 NSCLC, with KM12 colon, in the assay with UACC-257 melanoma, in the assay on NCI-H23 lung, in the assay on SK-OV-3 ovarian and with SR leukemia was more than 100 µM in each case. Moreover, the TGI in the assay with SK-MEL-28 melanoma and in the assay with A498 renal was more than 100 µM each time.
Regarding `Cc1ccc(S(=O)(=O)NC(=O)NCC(=O)O)cc1`, the TGI in the assay with SF-539 CNS, in the assay with HOP-92 NSCLC, in the assay on KM12 colon, with UACC-257 melanoma, with MCF7 breast and with NCI-H23 lung was more than 100 µM throughout. Besides, the TGI in the assay on SK-OV-3 ovarian and with SK-MEL-28 melanoma was more than 100 µM in each case.
Turning to `COC1=CC(=O)C2C(C1=O)[C@@H]1c3ccccc3OC[C@H]21` (stereo partly drawn), the TGI with SF-539 CNS, in the assay with HOP-92 NSCLC, in the assay with KM12 colon, with NCI-H23 lung, with SK-OV-3 ovarian and in the assay on SK-MEL-28 melanoma was more than 100 µM in each case. In the assay on A498 renal, this molecule displayed a TGI of more than 100 µM.
